Data taken from patent US6887867B2, “5H-2,3-benzodiazepine antagonists of excitatory amino acid receptors” (Transgenomic, Inc., priority 2000, dated 2005).
Like-named read-outs stand apart in the source and are kept apart here.

Assays:
[1] = tested on: focal ischemia; conditions: rat MCAO, cited from earlier work
[2] = tested on: global ischemia; conditions: rat common carotid arteries model; cited from earlier work
[3] = tested on: MES seizures; experiment: Maximal electro shock (MES) seizure model; format: in vivo; conditions: rats
Procedure: The extent of protection by a test compound in a seizure model is tested as described by Rogawski et al. (Epilepsy Research, 15:179-184, 1993). Male NIH Swiss mice (25-30 g) are injected ip with the test drug. The mice are subjected to a 0.2 sec, 60 Hz, 50 mA electrical stimulus delivered with corneal electrodes wetted with 0.9% saline at 15-30 min post dosing. Animals failing to show tonic hind limb extension are scored as protected. Compounds may be selected which are active in this model.
SYM 2267 was evaluated for in vivo anticonvulsant activity in the maximal electro shock (MES) model in rats.

[4] = Rotorod test; format: in vivo; conditions: rats, PO
[5] = tested on: AMPA receptor; experiment: Inhibition of Ca2+ influx into cortical cells stimulated with AMPA; format: cell-based; conditions: cortical cells stimulated with 50 μM AMPA; fluorescence readout
Procedure: Three of the antagonists disclosed herein were tested, in vitro, for inhibition of Ca^2+ influx into cortical cells stimulated with AMPA. They are 1-(4-Aminophenyl)-3,5-dihydro-4-methyl-3-acetyl-7-methoxy-5H-2,3-benzodiazepine (8) (SYM 2267), 1-(4-Aminophenyl)-3,5-dihydro-4-methyl-3-acetyl-8-methoxy-5H-2,3-benzodiazepine (21) (SYM 2268), and 1-(4-Aminophenyl)-3,5-dihydro-4-methyl-3-acetyl-7-amino-8-methoxy-5H-2,3-benzodiazepine (27) (SYM 2269), respectively. The in vitro test measures inhibition of Ca^2+ influx into cortical cells stimulated with 50 µM AMPA by the test compounds. The rationale underlying this assay is that stimulation of the cortical cells with AMPA activates AMPA receptors causing Ca^2+ influx with an increase in intracellular Ca^2+ which is then detected by measuring an increase in fluorescence. The Ca^2+ increase comes mostly from extracellular (influx of Ca^2+ through the channel into the cell), but could also come from intracellular sources (release of Ca^2+ from storage). The inhibition of the AMPA receptor function is detected by a decrease in the level of intracellular Ca^2+ and a decrease in fluorescence.

For `CC1=NN=C(c2ccc(N)cc2)c2cc3c(cc2C1)OCO3` [GYKI 52466], the “Reduction of cortical infarct volume” value ([1]; dosing delayed for one hour) is given as 48%, the “Reduction of cortical infarct volume” value ([1]; given continuously for 2 hours just after occlusion) is given as 68% and the “Efficacy in global ischemia compared with NBQX” value [2] is given as “as effective as the glutamate site competitive antagonist NBQX”.

For `COc1ccc2c(c1)CC(C)N(C(C)=O)N=C2c1ccc(N)cc1` (stereo not drawn) [SYM 2267, 1-(4-Aminophenyl)-3,5-dihydro-4-methyl-3-acetyl-7-methoxy-5H-2,3-benzodiazepine], the ED50 ([3]; Rattus norvegicus, MES model, read-out: MES effective dosage (ED50)) was 8.4 mg/kg, the “Protection from MES seizures” value ([3]; orally (PO), 30 mg/kg) was “fully protected” and the “Sedative or toxic side effects in the rotorod test” value [4] was “No sedative or toxic side effects were observed”. For the same compound, the IC50 [5] was 26.1 µM.

In the case of `COc1ccc2c(c1)C(c1ccc(N)cc1)=NN(C(C)=O)C(C)C2` (stereo not drawn) [SYM 2268, 1-(4-Aminophenyl)-3,5-dihydro-4-methyl-3-acetyl-8-methoxy-5H-2,3-benzodiazepine], the IC50 [5] is reported as 16.6 µM.

`COc1cc2c(cc1N)CC(C)N(C(C)=O)N=C2c1ccc(N)cc1` (stereo not drawn) [SYM 2269, 1-(4-Aminophenyl)-3,5-dihydro-4-methyl-3-acetyl-7-amino-8-methoxy-5H-2,3-benzodiazepine] showed an IC50 [5] of 7.3 µM.
